Values quoted from earlier work as cited in patent publication US12336999B2, “Modified release formulations of 2-[3-[4-amino-3-(2-fluoro-4-phenoxy-phenyl) pyrazolo[3,4-d] pyrimidin-1-yl]piperidine-1-carbonyl]-4-methyl-4-[4-(oxetan-3-yl) piperazin-1-yl]pent-2-enenitrile” (Principia Biopharma Inc., priority 2016, dated 2025).
Where two headings read alike, the source gives them in different places.

bioavailability as determined by AUC (administered intraduodenally): 100%
bioavailability as determined by AUC (direct oral administration): 21%
SMILES: C=CC(=O)N1CCC[C@@H](n2nc(-c3ccc(Oc4ccccc4)cc3)c3c(N)ncnc32)C1 [ibrutinib]
